# Experimental data reported in PMC10845951, “Characterization of a selective, iron-chelating antifungal compound that disrupts fungal metabolism and synergizes with fluconazole” (Microbiology Spectrum, 2024).
# Tested on: C. glabrata gene expression
# Assay: RNA sequencing (gene regulation)
# Assay type: cell-based, Candida glabrata
# Details: for Log2 Fold-Change: vs DMSO
# Protocol: Cells from overnight precultures in YPD medium were reinoculated in fresh YNB −iron medium (see “Culture maintenance” for contents) without iron and grown until OD600 of 0.4. […] Cells were collected from three independent experiments, snap frozen, and stored at −80°C. Total RNA purification was performed as previously described using the RNeasy Mini Kit (74104, Qiagen), and gDNA removal was made using the RNase-Free DNase Set kit (79254, Qiagen). RNA quantification and quality control were done with a Tape Station 4150 (Agilent) ([59]).
# Library preparation and sequencing were performed at GenomEast (IGBMC, Illkirch, France). One DMSO 0.05% sample was excluded from the analysis due to insufficient quality. The library was sequenced on Illumina Hiseq 4000 sequencer as single-read 50-base reads following Illumina’s instructions. Reads were pre-processed in order to remove adapter, polyA, and low-quality sequences (Phred quality score below 20). Reads shorter than 40 bases were discarded from further analysis. These pre-processing steps were performed using cutadapt version 1.10 ([60]). Image analysis and base calling were performed using RTA 2.7.7 and bcl2fastq2.17.1.14. Adapter dimer reads were removed using DimerRemover (https://sourceforge.net/projects/dimerremover/). The quality of the RNAseq reads was examined using FastQC 0.11.2 (http://www.bioinformatics.babraham.ac.uk/projects/fastqc/) and FastQScreen 0.5.1 (https://www.bioinformatics.babraham.ac.uk/projects/fastq_screen/). Reads were mapped onto the ASM254v2 assembly of Candida glabrata genome using STAR version 2.5.3a ([61]). Gene expression quantification was performed from uniquely aligned reads using htseq-count version 0.6.1p1 ([62]), with annotations from Ensembl fungi version 50 and union mode. Only non-ambiguously assigned reads have been retained for further analyses. Read counts were normalized across samples with the median-of-ratios method ([63]). Comparisons were implemented in the Bioconductor package DESeq2 version 1.16.1 using the test for differential expression ([64]). Genes with no P-value corresponded to genes with high Cook’s distance that were filtered out. P-values were adjusted for multiple testing using the Benjamini and Hochberg method ([65]). Genes with no adjusted P-value correspond to genes filtered out in the independent filtering step in order to remove reads from genes that have no or little chance of showing evidence of significant differential expression.
compound,measurement,setting,value
"c1ccc(-c2cccc(-c3ccccn3)n2)nc1 [2,2′:6′,2′′-terpyridine]",genes significantly downregulated,"10 µM, 1 h",220 genes
same,genes significantly upregulated,"10 µM, 1 h",224 genes
same,Log2 Fold-Change,ALD5 CAGL0J03212g,0.7544
same,Log2 Fold-Change,AP5 CAGL0K08756g,0.9964
same,Log2 Fold-Change,APE1 CAGL0K08536g,0.6939
same,transcriptional response,C. glabrata and S. cerevisiae,strong iron starvation response
same,Log2 Fold-Change,CAGL0A03674g,0.5588
same,Log2 Fold-Change,CAGL0B00484g,0.7628
same,Log2 Fold-Change,CAGL0B00792g,1.214
same,Log2 Fold-Change,CAGL0B00880g,0.7009
same,Log2 Fold-Change,CAGL0B01485g,0.6219
same,Log2 Fold-Change,CAGL0B02343g,1.023
same,Log2 Fold-Change,CAGL0H06963g,0.7275
same,Log2 Fold-Change,CAGL0H06985g,0.7901
same,Log2 Fold-Change,CAGL0H07205g,0.5522
same,Log2 Fold-Change,CAGL0H08393g,1.535
same,Log2 Fold-Change,CAGL0H09966g,1.521
same,Log2 Fold-Change,CAGL0I00264g,0.9978
same,Log2 Fold-Change,CAGL0I02354g,0.6425
same,Log2 Fold-Change,CAGL0I02376g,0.6418
same,Log2 Fold-Change,CAGL0I02398g,0.5822
same,Log2 Fold-Change,CAGL0I02508g,0.5529
same,Log2 Fold-Change,CAGL0I02684g,0.5135
same,Log2 Fold-Change,CAGL0I03344g,0.7316
same,Log2 Fold-Change,CAGL0I03608g,0.7862
same,Log2 Fold-Change,CAGL0I03630g,0.6284
same,Log2 Fold-Change,CAGL0I04290g,0.6237
same,Log2 Fold-Change,CAGL0I05060g,0.5728
same,Log2 Fold-Change,CAGL0I05654g,0.7141
same,Log2 Fold-Change,CAGL0I09350g,0.5587
same,Log2 Fold-Change,CAGL0I09702g,0.5611
same,Log2 Fold-Change,CAGL0I10670g,0.9553
same,Log2 Fold-Change,CAGL0J00451g,2.136
same,Log2 Fold-Change,CAGL0J00473g,0.7426
same,Log2 Fold-Change,CAGL0J01023g,1.022
same,Log2 Fold-Change,CAGL0J01045g,0.9433
same,Log2 Fold-Change,CAGL0J02376g,0.7958
same,Log2 Fold-Change,CAGL0J03718g,0.5395
same,Log2 Fold-Change,CAGL0J05412g,0.5243
same,Log2 Fold-Change,CAGL0J07568g,0.7185
same,Log2 Fold-Change,CAGL0J07980g,0.7919
same,Log2 Fold-Change,CAGL0J08250g,0.5358
same,Log2 Fold-Change,CAGL0J08910g,0.5502
same,Log2 Fold-Change,CAGL0J09196g,0.506
same,Log2 Fold-Change,CAGL0J09460g,0.6815
same,Log2 Fold-Change,CAGL0J10032g,0.7428
same,Log2 Fold-Change,CAGL0J10252g,0.8692
same,Log2 Fold-Change,CAGL0J10912g,0.7791
same,Log2 Fold-Change,CAGL0J11066g,0.8417
same,Log2 Fold-Change,CAGL0J11088g,0.5227
same,Log2 Fold-Change,CAGL0J11242g,0.9997
same,Log2 Fold-Change,CAGL0J11286g,0.9034
same,Log2 Fold-Change,CAGL0K02211g,0.9809
same,Log2 Fold-Change,CAGL0K02387g,0.933
same,Log2 Fold-Change,CAGL0K02431g,0.8737
same,Log2 Fold-Change,CAGL0K03861g,0.5943
same,Log2 Fold-Change,CAGL0K05049g,0.5707
same,Log2 Fold-Change,CAGL0K05555g,0.5483
same,Log2 Fold-Change,CAGL0K06215g,1.181
same,Log2 Fold-Change,CAGL0K07007g,1.24
same,Log2 Fold-Change,CAGL0K07898g,0.62
same,Log2 Fold-Change,CAGL0K08272g,0.5171
same,Log2 Fold-Change,CAGL0K08360g,0.5636
same,Log2 Fold-Change,CAGL0K09284g,1.197
same,Log2 Fold-Change,CAGL0K09372g,0.5402
same,Log2 Fold-Change,CAGL0K09614g,0.8683
same,Log2 Fold-Change,CAGL0K09922g,0.6435
same,Log2 Fold-Change,CAGL0L00583g,0.7346
same,Log2 Fold-Change,CAGL0L02739g,0.6875
same,Log2 Fold-Change,CAGL0L02871g,0.8194
same,Log2 Fold-Change,CAGL0L03047g,0.9793
same,Log2 Fold-Change,CAGL0L03696g,0.5808
same,Log2 Fold-Change,CAGL0L04092g,0.5318
same,Log2 Fold-Change,CAGL0L04114g,0.5841
same,Log2 Fold-Change,CAGL0L04950g,0.896
same,Log2 Fold-Change,CAGL0L05170g,0.8533
same,Log2 Fold-Change,CAGL0L05258g,1.271
same,Log2 Fold-Change,CAGL0L05500g,0.7913
same,Log2 Fold-Change,CAGL0L05566g,0.7478
same,Log2 Fold-Change,CAGL0L05786g,1.136
same,Log2 Fold-Change,CAGL0L06468g,0.5199
same,Log2 Fold-Change,CAGL0L06754g,0.7195
same,Log2 Fold-Change,CAGL0L07678g,0.9514
same,Log2 Fold-Change,CAGL0L07832g,0.9435
same,Log2 Fold-Change,CAGL0L08096g,0.673
same,Log2 Fold-Change,CAGL0L08206g,0.6805
same,Log2 Fold-Change,CAGL0L08756g,0.7529
same,Log2 Fold-Change,CAGL0L08976g,0.7934
same,Log2 Fold-Change,CAGL0L10846g,0.7927
same,Log2 Fold-Change,CDC21 CAGL0K05467g,0.5322
same,Log2 Fold-Change,FTR1 CAGL0I06743g,1.014
same,Log2 Fold-Change,GAT1 CAGL0K07634g,0.7416
same,Log2 Fold-Change,HBN1 CAGL0B00990g,1.565
same,Log2 Fold-Change,HMX1 CAGL0A03905g,1.923
same,Log2 Fold-Change,KNH1 CAGL0H07997g,0.5109
same,Log2 Fold-Change,NOP8 CAGL0B01397g,0.7894
same,Log2 Fold-Change,PDR16 CAGL0J07436g,0.9143
same,Log2 Fold-Change,SNQ2 CAGL0I04862g,0.5824
same,Log2 Fold-Change,SUT1 CAGL0I04246g,0.7641
same,Log2 Fold-Change,SUT2 CAGL0L09383g,0.6785
same,Log2 Fold-Change,TRR1 CAGL0I01166g,1.667
